≈ marks a conversion by molar mass, not a printed value. Like-named read-outs stand apart in the source and are kept apart here. Non-standard residues stand in square brackets, D forms with d. Residues, ends and D or L forms follow the SMILES beside them. *: point of attachment. Stearoyl = CCCCCCCCCCCCCCCCCC(=O)*; Lauroyl = CCCCCCCCCCCC(=O)*
Key:
[1] = tested on: Propionibacterium acnes ATCC 6919; format: cell-based
Method: A second method that was used to determine the MIC in P. acnes for selected antimicrobial agents was a non-standard broth microdilution method that used an assay buffer composed of reinforced Clostridial broth. Briefly, a log-phase bacterial culture of P. acnes was used to inoculate wells of a 96-well plate so that the final inoculum for each well contained 5×10^5 to 1×10^6 CFU/milliliter. […] Plates were incubated for 48-72 hours at 37° C. in a GasPak anaerobic chamber. The lowest concentration of peptide that contained no visible growth as evidenced by a lack of turbidity when compared to the control (no peptide) was determined as the MIC. MIC values that utilized this method of MIC determination are indicated in Table 9 with a subscript letter “d.”

[2] = tested on: Candida albicans ATCC 18804; experiment: MIC in yeasts, NCCLS M27-A2 broth microdilution, RPMI 1640 (Table 9, letter e); format: cell-based; conditions: ATCC 18804
In short: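 Plates incubated 24 to 48 hours at 37° C, with yeast seeded at 0.5×10^3–2.5×10^3 CFU/milliliter final in RPMI 1640 (glutamine, phenol red indicator). MIC was read as the lowest peptide concentration showing no visible growth.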

[3] = tested on: Staphylococcus aureus ATCC 29213; conditions: ATCC 29213, pH 7.4
[4] = tested on: Salmonella dublin (Lane); conditions: pH 7.4
[5] = tested on: IL-12 release; experiment: Anti-inflammation assay: IL-12 release in PBMCs stimulated by P. acnes (IL-12p70 ELISA); format: cell-based, human; conditions: for reduction of IL-12 release in PBMs stimulated by P. acnes: 12.5 to 0.78 micrograms per milliliter; for IC50: PBMCs stimulated by P. acnes, over night, read-out: IC50 value, reduction of IL-12 release
Method: An assay that detected reductions in IL-12 released in whole human blood cells (PBMCs) was utilized to detect reductions in inflammation elicited by peptide compositions described herein. The assay utilized the following materials and reagents: whole human blood cells; P. acnes; peptides 55, 67 and 93 from Table 3; IL-12p70 ELISA kit (eBiosciences); RPMI 1640 growth medium; PBS; and a 96-well microtiter plate. PBMCs were prepared from whole human blood cells according to standard procedures and cells were resuspended in RPMI 1640 and 10% FCS. Cells were seeded at 250,000 cells per well in a 96-well microtiter plate and incubated for 90 minutes. […] Controls included untreated cells, P. acnes alone or a peptide alone. The cells were incubated over night at 37° C., and cell supernatants were collected and stored at −80° C. for use in an IL-12 ELISA assay (eBiosciences). A 1:1 dilution of supernatant was utilized to perform the IL-12 ELISA following the protocol provided by the manufacturer.

[6] = tested on: Staphylococcus aureus ATCC 29213; experiment: MIC, NCCLS M7-A6 broth microdilution, cation-adjusted Mueller Hinton broth (Table 9, no superscript); format: cell-based; conditions: ATCC 29213
In short: (§1)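 CAMHB microdilution; final inoculum 5×10^5–1×10^6 CFU/milliliter from log-phase culture; overnight, 37° C; MIC = lowest peptide conc. without visible growth (turbidity) vs no-peptide control.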

[7] = tested on: Salmonella dublin (Lane); experiment: MIC, NCCLS M7-A6 broth microdilution (Table 9, no superscript); format: cell-based
In short: as §1

[8] = tested on: Escherichia coli ATCC 25922; experiment: as above; format: cell-based; conditions: ATCC 25922
In short: as §1

[9] = tested on: Pseudomonas aeruginosa ATCC 27853; experiment: as above; format: cell-based; conditions: ATCC 27853
In short: as §1

[10] = tested on: Staphylococcus epidermidis ATCC 12228; experiment: as above; format: cell-based; conditions: ATCC 12228
In short: as §1

CCCCCCCCCCCC(=O)N[C@@H](CCCNC(=N)N)C(=O)N[C@@H](CO)C(=O)N[C@@H](CCCNC(=N)N)C(=O)N[C@@H](Cc1c[nH]c2ccccc12)C(=O)N[C@@H](CCCNC(=N)N)C(=O)N[C@@H](CC(=O)O)C(=O)N[C@H](C(=O)N[C@@H](C)C(=O)N[C@@H](CCCNC(=N)N)C(=O)N[C@@H](CC(N)=O)C(=O)N[C@@H](Cc1ccccc1)C(=O)N[C@@H](CCSC)C(=O)N[C@@H](CCCNC(=N)N)C(N)=O)C(C)C [Peptide 88, Lauryl-RSRWRDVARNFMR-NH2] (Lauroyl-RSRWRDVARNFMR-NH2)
MIC P. acnes [1]: 25 µg·days/mL
MIC C. albicans [2]: 32e ug/mL
MIC S. aureus [3]: 3b ug/mL
MIC S. dublin [4]: 3b ug/mL

CSCC[C@@H](NC(=O)[C@@H](Cc1ccccc1)NC(=O)[C@@H](CC(N)=O)NC(=O)[C@@H](CCCNC(=N)N)NC(=O)[C@@H](CO)NC(=O)[C@@H](Cc1c[nH]c2ccccc12)NC(=O)[C@@H](CC(=O)O)NC(=O)[C@@H](CCCNC(=N)N)NC(=O)[C@@H](Cc1c[nH]c2ccccc12)NC(=O)[C@@H](CCCNC(=N)N)NC(=O)[C@@H](CO)NC(=O)[C@@H](CCCNC(=N)N)NC(C)=O)C(=O)N[C@H](CCCNC(=N)N)C(N)=O [Peptide 95, Ac-rsrwrdwsrnfmr-NH2] (Ac-[dR][dS][dR][dW][dR][dD][dW][dS][dR][dN][dF][dM][dR]-NH2)
MIC P. acnes [1]: 12.5 µg·days/mL
MIC C. albicans [2]: 16e ug/mL
MIC S. aureus [3]: 12.5b ug/mL
MIC S. dublin [4]: 6b ug/mL

CCCCCCCCCCCCCCCCCC(=O)N[C@H](C(=O)N[C@@H](CCCNC(=N)N)C(=O)N[C@H](C(=O)N[C@@H](CO)C(=O)N[C@@H](CCCNC(=N)N)C(=O)N[C@H](C(=O)NCC(=O)N[C@@H](CCCNC(=N)N)C(=O)N[C@@H](CO)C(=O)N[C@@H](CCCNC(=N)N)C(=O)N[C@@H](Cc1c[nH]c2ccccc12)C(=O)N[C@@H](CCCNC(=N)N)C(=O)N[C@@H](CC(=O)O)C(=O)N[C@@H](Cc1c[nH]c2ccccc12)C(=O)N[C@@H](CO)C(=O)N[C@@H](CCCNC(=N)N)C(=O)N[C@@H](CC(N)=O)C(=O)N[C@@H](Cc1ccccc1)C(=O)N[C@@H](CCSC)C(=O)N[C@@H](CCCNC(=N)N)C(N)=O)[C@@H](C)O)C(C)C)[C@@H](C)O [Peptide 67] (Stearoyl-TRVSRTGRSRWRDWSRNFMR-NH2)
reduction of IL-12 release in PBMs stimulated by P. acnes [5]: dose response of reduction of IL-12 release
MIC S. aureus [6]: 64 µg/mL (≈ 22.2 µM)
MIC S. dublin [7]: 64 µg/mL (≈ 22.2 µM)

H2N-kkkkkkkkaatrvartgrsrwrdvarnfmr-NH2 (KKKKKKKKAATRVARTGRSRWRDVARNFMR; N-terminal amine, C-terminal amide) [Peptide 55]
IC50 [5]: > 20000 nM

CSCC[C@H](NC(=O)[C@H](Cc1ccccc1)NC(=O)[C@H](CC(N)=O)NC(=O)[C@H](CCCNC(=N)N)NC(=O)[C@H](CO)NC(=O)[C@@H](NC(=O)[C@H](CC(=O)O)NC(=O)[C@H](CCCNC(=N)N)NC(=O)[C@H](Cc1c[nH]c2ccccc12)NC(=O)[C@H](CCCNC(=N)N)NC(=O)[C@H](CO)NC(=O)[C@H](CCCNC(=N)N)NC(C)=O)C(C)C)C(=O)N[C@@H](CCCNC(=N)N)C(N)=O [Peptide 93, Ac-RSRWRDVSRNFMR-NH2] (Ac-RSRWRDVSRNFMR-NH2)
reduction of IL-12 release in PBMs stimulated by P. acnes [5]: dose response of reduction of IL-12 release
IC50 [5]: 800 nM
MIC S. aureus [6]: >64 µg/mL
MIC E. coli [8]: >64 µg/mL
MIC P. aeruginosa [9]: >64 µg/mL
MIC S. dublin [7]: >64 µg/mL
MIC S. epidermidis [10]: >64 µg/mL

CSCC[C@@H](NC(=O)[C@@H](Cc1ccccc1)NC(=O)[C@@H](CC(N)=O)NC(=O)[C@@H](CCCNC(=N)N)NC(=O)[C@@H](CO)NC(=O)[C@@H](Cc1c[nH]c2ccccc12)NC(=O)[C@@H](CC(=O)O)NC(=O)[C@@H](CCCNC(=N)N)NC(=O)[C@@H](Cc1c[nH]c2ccccc12)NC(=O)[C@@H](CCCNC(=N)N)NC(=O)[C@@H](CO)NC(=O)[C@@H](CCCNC(=N)N)NC(=O)CNC(=O)[C@H](NC(=O)[C@@H](CCCNC(=N)N)NC(=O)[C@@H](CO)NC(=O)[C@H](NC(=O)[C@@H](CCCNC(=N)N)NC(=O)[C@H](NC(C)=O)[C@H](C)O)C(C)C)[C@H](C)O)C(=O)N[C@H](CCCNC(=N)N)C(=O)N[C@H](C)C(=O)N[C@H](C)C(=O)N[C@H](CCCCN)C(=O)N[C@H](CCCCN)C(=O)N[C@H](CCCCN)C(=O)N[C@H](CCCCN)C(=O)N[C@H](CCCCN)C(=O)N[C@H](CCCCN)C(=O)N[C@H](CCCCN)C(=O)N[C@H](CCCCN)C(N)=O [Peptide 31, Ac-trvsrtgrsrwrdwsrnfmraakkkkkkkk-NH2]
MIC E. coli [8]: >64 µg/mL
MIC P. aeruginosa [9]: >64 µg/mL
MIC S. epidermidis [10]: 8 µg/mL (≈ 2.09 µM)
MIC P. acnes [1]: 12.5 µg·days/mL
MIC S. aureus [3]: 3b ug/mL
MIC S. dublin [4]: 6b ug/mL

CSCC[C@H](NC(=O)[C@H](Cc1ccccc1)NC(=O)[C@H](CC(N)=O)NC(=O)[C@H](CCCNC(=N)N)NC(=O)[C@H](CO)NC(=O)[C@H](Cc1c[nH]c2ccccc12)NC(=O)[C@H](CC(=O)O)NC(=O)[C@H](CCCNC(=N)N)NC(=O)[C@H](Cc1c[nH]c2ccccc12)NC(=O)[C@H](CCCNC(=N)N)NC(=O)[C@H](CO)NC(=O)[C@H](CCCNC(=N)N)NC(=O)CNC(=O)[C@@H](NC(=O)[C@H](CCCNC(=N)N)NC(=O)[C@H](CO)NC(=O)[C@@H](NC(=O)[C@H](CCCNC(=N)N)NC(=O)[C@@H](NC(C)=O)[C@@H](C)O)C(C)C)[C@@H](C)O)C(=O)N[C@@H](CCCNC(=N)N)C(=O)N[C@@H](C)C(=O)N[C@@H](C)C(=O)N[C@@H](CCCN)C(=O)N[C@@H](CCCN)C(=O)N[C@@H](CCCN)C(=O)N[C@@H](CCCN)C(=O)N[C@@H](CCCN)C(=O)N[C@@H](CCCN)C(=O)N[C@@H](CCCN)C(=O)N[C@@H](CCCN)C(N)=O [Peptide 3, Ac-TRVSRTGRSRWRDWSRNFMRAAOOOOOOOO-NH2]
MIC E. coli [8]: >64 µg/mL
MIC P. aeruginosa [9]: >64 µg/mL
MIC S. epidermidis [10]: >64 µg/mL
MIC P. acnes [1]: 6 µg·days/mL
MIC S. aureus [3]: 6b ug/mL
MIC S. dublin [4]: 6b ug/mL

CSCC[C@H](NC(=O)[C@H](Cc1ccccc1)NC(=O)[C@H](CC(N)=O)NC(=O)[C@H](CCCNC(=N)N)NC(=O)[C@H](C)NC(=O)[C@H](Cc1c[nH]c2ccccc12)NC(=O)[C@H](CC(=O)O)NC(=O)[C@H](CCCNC(=N)N)NC(=O)[C@H](Cc1c[nH]c2ccccc12)NC(=O)[C@H](CCCNC(=N)N)NC(=O)[C@H](CO)NC(=O)[C@H](CCCNC(=N)N)NC(=O)CNC(=O)[C@@H](NC(=O)[C@H](CCCNC(=N)N)NC(=O)[C@H](C)NC(=O)[C@@H](NC(=O)[C@H](CCCNC(=N)N)NC(=O)[C@@H](NC(C)=O)[C@@H](C)O)C(C)C)[C@@H](C)O)C(=O)N[C@@H](CCCNC(=N)N)C(N)=O [Peptide 37] (Ac-TRVARTGRSRWRDWARNFMR-NH2)
MIC E. coli [8]: >64 µg/mL
MIC P. aeruginosa [9]: >64 µg/mL
MIC S. epidermidis [10]: >64 µg/mL
MIC P. acnes [1]: 100 µg·days/mL
MIC C. albicans [2]: 64e ug/mL
MIC S. aureus [3]: 25b ug/mL
MIC S. dublin [4]: 25b ug/mL

— patent US20050282755A1, “Compositions having antimicrobial activity and uses thereof” (priority 2004, published 2005)
